{"source": "patent US20220202805A1", "about": "“REBAMIPIDE FOR USE IN PREVENTION AND/OR TREATMENT OF SYNUCLEINOPATHIES” (SQUARE POWER LTD., priority 2019, published 2022)", "system": "β-sitosterol β-D-glucoside (BSSG) model", "test": "BSSG-induced Parkinson's disease model in rats, 10-month study", "assay_type": "in vivo, Male Sprague Dawley rats", "description": "Increased intestinal permeability may lead to a leakage of various substances (such as bacterial toxins and xenobiotics), that are normally unable to cross the gut wall, from the intestine into the body proper, which may trigger synthesis of misfolded alpha-synuclein in the enteric wall and its transfer to the brain via n. vagus. The increased intestinal permeability is a typical consequence of epithelial dysfunction caused by all sorts of enteric inflammation. Therefore, induction of the inflammatory process may be used for setting of disease models. […] When fed to rodents, cycad flour triggers a progressive development of neurological deficits, with behavioral and cellular features that closely approximate those observed in patients. Besides neurotoxic properties, BSSG directly interacts with epithelium. It loosens tight junctions in mucosa via increase of intracellular calcium levels and thus increases permeability of epithelium.\nMale Sprague Dawley rats were used in a study performed during 10 months. The animals were put on the baseline diet consisting of BSSG, 3 mg/day, 5 doses weekly p.o. in Month 1 to Month 4. […]\nThe observed parameters: • 1. Quantitative analysis of misfolded α-synuclein in substantia nigra lysate • 2. Quantitative analysis of misfolded α-synuclein in intestinal lysate • 3. Quantitative analysis of misfolded α-synuclein in olfactory bulb lysate • 4. […]\nFinal analysis at Month 10 to investigate neurodegenerative disease progression: after in vivo tests (locomotion, coordination, and cognitive) a subgroup of animals in each experimental group is sacrificed. […] In addition inflammatory markers such as TNF-α, IL-6, etc. in brain section samples and serum are measured.\nIn order to evaluate the overall efficacy of rebamipide in Parkinson's disease a Cumulative PD Score was calculated. […]", "data": [{"compound": "O=C(NC(Cc1cc(=O)[nH]c2ccccc12)C(=O)O)c1ccc(Cl)cc1", "note": "(stereo not drawn) [Rebamipide, 2-[(4-chlorobenzoyl)amino]-3-(2-oxo-1H-quinolin-4-yl)propanoic acid]", "values": [{"measurement": "alpha-synuclein aggregates in comparison with the placebo group", "setting": "rebamipide 30 or 200 mg/kg/day p.o. in feed, BSSG 3 mg/day, histological analysis, preliminary results", "result": "reduced"}, {"measurement": "parameters tested including functional tests", "setting": "rebamipide 30 or 200 mg/kg/day p.o. in feed, BSSG 3 mg/day, vs placebo, preliminary results", "result": "significant improvement"}, {"measurement": "Cumulative PD score, better as compared to the placebo group", "setting": "weighted score of α-synuclein, functional, permeability, inflammatory, olfactory, retinal tests and mortality, rebamipide treated group vs placebo", "result": "more than 20%"}]}]}
